Test results from paper PMC10708353, “Malvidin and Its Mono- and Di-Glucosides Forms: A Study of Combining Both In Vitro and Molecular Docking Studies Focused on Cholinesterase, Butyrylcholinesterase, COX-1 and COX-2 Activities” (Molecules, 2023).
Read-outs that look alike come from different tables or passages of the source. Marks after values point to notes of the source that are not given here.

Assays:
[1] = molecular target: T1, COX-2 (human recombinant) (Homo sapiens, UniProt P35354); test: COX colorimetric inhibitor screening assay, COX-2; assay type: biochemical; details: for Selectivity Index COX-2/COX-1: ratio of IC50 COX-2 to IC50 COX-1
T1 construct: purchased Cayman Chemical, Ann Arbor, MI, USA 701050
T1 sequence (P35354 18-604): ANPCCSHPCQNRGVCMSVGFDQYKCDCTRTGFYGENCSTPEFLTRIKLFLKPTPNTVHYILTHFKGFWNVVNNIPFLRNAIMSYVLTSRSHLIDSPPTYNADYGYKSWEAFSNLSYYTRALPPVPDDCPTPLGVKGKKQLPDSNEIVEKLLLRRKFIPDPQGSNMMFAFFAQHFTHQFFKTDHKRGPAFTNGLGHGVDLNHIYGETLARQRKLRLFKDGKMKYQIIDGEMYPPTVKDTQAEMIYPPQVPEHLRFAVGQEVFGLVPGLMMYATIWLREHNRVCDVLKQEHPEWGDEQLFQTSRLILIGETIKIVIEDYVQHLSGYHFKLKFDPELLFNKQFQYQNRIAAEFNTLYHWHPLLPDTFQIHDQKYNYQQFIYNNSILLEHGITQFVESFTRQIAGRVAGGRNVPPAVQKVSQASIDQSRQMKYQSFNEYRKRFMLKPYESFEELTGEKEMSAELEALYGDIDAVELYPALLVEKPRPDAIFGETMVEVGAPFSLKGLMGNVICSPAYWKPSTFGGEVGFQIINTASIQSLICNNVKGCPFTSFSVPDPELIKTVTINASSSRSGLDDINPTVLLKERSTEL
Protocol: (§1) Firstly, the plate was carefully shaken for a few seconds and incubated for 5 min at 25 °C. Secondly, 20 μL of colorimetric substrate solution was added to each plate’s well. It was the addition of 20 μL of arachidonic acid (final concentration in reaction mixture 100 µM) which initiated the reaction. Thirdly, the plate was shaken again for a few seconds and incubated for two min at 25 °C. […] The percentage of COX inhibition was calculated using the Equation (1): […]
(§2) The IC50 parameter was calculated referring to plots showing the relation between percentage of COX inhibition and concentration of the compounds.

[2] = molecular target: T2, acetylcholinesterase from Electrophorus electricus, type VI-S (AChE) (Electrophorus electricus, UniProt O42275); test: Acetylcholinesterase inhibition assay (Ellman method, modified); assay type: biochemical
T2 construct: purchased Merck kGaA, Darmstadt, Germany
T2 sequence (O42275 24-633): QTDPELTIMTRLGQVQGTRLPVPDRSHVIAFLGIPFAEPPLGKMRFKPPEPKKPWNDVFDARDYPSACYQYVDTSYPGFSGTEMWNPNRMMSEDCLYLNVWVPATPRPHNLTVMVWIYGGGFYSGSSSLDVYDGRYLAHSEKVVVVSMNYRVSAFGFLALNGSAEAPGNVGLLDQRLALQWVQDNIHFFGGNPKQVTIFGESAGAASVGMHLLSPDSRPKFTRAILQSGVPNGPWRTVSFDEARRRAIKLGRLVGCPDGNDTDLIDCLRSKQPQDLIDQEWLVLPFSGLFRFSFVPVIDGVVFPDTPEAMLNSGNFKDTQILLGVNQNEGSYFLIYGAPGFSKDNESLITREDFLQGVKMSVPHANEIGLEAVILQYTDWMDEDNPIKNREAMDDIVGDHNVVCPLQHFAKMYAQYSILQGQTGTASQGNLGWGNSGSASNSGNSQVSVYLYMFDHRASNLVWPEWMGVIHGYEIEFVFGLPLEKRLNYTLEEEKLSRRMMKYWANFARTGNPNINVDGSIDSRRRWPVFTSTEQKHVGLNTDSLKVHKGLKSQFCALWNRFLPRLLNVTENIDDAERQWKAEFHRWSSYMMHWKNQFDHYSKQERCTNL
Source text: (§3) 5,5′-Dithiobis(2-nitrobenzoic acid), (DTNB), acetylthiocholine iodide, butyryl-thiocholine iodide, acetylcholinesterase from Electrophorus electricus, type VI-S (aChE), Butyrylcholinesterase from equine serum (BChE), neostigmine bromide, and sodium dodecyl sulfate (SDS) were purchased from Merck kGaA, Darmstadt, Germany.
(§4) Referring to both the Ellman and Jin et al. methods, we identified acetylcholinesterase/butyrylcholinesterase activity, implementing minor modifications. In brief, the assay was carried out on a 96-well plate, with each well containing 140 µL 0.1 M phosphate buffer (pH 8.0), 10 µL of stock solution of Mv, or Mv 3-glc or Mv 3,5-diglc, 10 µL AChE/BChE (1 units/mL). The plate was incubated for 10 min at 25 °C. Subsequently, 10 μL of a 10 mM DTNB was added to the reaction mixture. In the following step, the reaction was initiated by adding 10 μL of a 14 mM acetylthiocholine iodide/butyryl-thiocholine iodide. The plate was shaken for one minute and finally 20 µL of 5% SDS was added in order to stop the reaction. Control wells, which contained the same composition except for the studied compounds (10 µL, 70% ethanol), were included. […] All of the reactions were performed in five repetitions. The percent of AChE/BChE inhibition was calculated using the following formula:(1) %Inhibition=Ac−As/Ac·100% where: As refers to the absorbance of the sample containing Mvs and Ac refers to the absorbance of the control sample. The studies of AChE and BChE inhibition were also performed depending on the concentration of the drug, neostigmine, as a positive control.

[3] = physiological pH, species established in previous publication, cited from earlier work
[4] = molecular target: T3, Butyrylcholinesterase from equine serum (BChE) (Equus caballus, UniProt P81908); test: Butyrylcholinesterase inhibition assay (Ellman method, modified); assay type: biochemical
T3 construct: Butyrylcholinesterase from equine serum (BChE); purchased Merck kGaA, Darmstadt, Germany; host or cells: equine serum
T3 sequence (P81908 whole entry): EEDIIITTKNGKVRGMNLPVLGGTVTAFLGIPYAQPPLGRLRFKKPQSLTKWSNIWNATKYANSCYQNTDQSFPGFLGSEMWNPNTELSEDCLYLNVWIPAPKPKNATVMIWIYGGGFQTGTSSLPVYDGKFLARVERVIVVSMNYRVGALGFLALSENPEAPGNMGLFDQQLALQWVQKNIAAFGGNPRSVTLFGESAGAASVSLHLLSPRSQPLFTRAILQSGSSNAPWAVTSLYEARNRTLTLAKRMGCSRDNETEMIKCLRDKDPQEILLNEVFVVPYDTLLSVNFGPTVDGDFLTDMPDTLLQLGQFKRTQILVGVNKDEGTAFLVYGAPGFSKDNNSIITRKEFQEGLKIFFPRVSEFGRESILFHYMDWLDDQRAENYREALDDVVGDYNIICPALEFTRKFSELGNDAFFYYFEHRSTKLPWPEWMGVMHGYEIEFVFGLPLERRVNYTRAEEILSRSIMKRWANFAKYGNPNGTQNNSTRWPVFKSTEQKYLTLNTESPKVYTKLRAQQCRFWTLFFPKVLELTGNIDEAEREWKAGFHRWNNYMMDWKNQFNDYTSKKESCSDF
Source text: as §3, §4

COX-1 (ovine) = molecular target: T4, COX-1 (ovine) (Ovis aries, UniProt P05979); test: COX colorimetric inhibitor screening assay, COX-1; assay type: biochemical
T4 construct: purchased Cayman Chemical, Ann Arbor, MI, USA 701050
T4 sequence (P05979 25-600): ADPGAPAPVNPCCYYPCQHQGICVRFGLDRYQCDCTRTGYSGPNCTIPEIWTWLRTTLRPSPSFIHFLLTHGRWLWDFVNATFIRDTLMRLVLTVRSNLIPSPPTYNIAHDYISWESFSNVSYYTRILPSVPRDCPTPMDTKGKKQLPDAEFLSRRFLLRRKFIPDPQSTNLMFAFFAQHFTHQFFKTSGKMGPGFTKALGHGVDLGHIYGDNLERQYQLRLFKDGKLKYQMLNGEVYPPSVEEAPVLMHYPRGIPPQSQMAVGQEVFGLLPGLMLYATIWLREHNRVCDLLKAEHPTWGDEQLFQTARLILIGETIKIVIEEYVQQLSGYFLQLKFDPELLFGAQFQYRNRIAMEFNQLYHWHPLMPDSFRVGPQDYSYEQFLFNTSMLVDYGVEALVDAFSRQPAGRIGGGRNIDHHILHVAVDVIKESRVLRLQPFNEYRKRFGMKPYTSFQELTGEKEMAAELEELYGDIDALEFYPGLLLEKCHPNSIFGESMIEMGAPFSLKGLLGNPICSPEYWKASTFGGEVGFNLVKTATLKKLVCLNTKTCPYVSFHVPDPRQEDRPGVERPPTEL
Protocol: as §1, §2

[5] = compound concentration 100 µM, read-out: Inhibition of AChE (%)
[6] = compound concentration 100 µM, read-out: Inhibition of BChE (%)
[7] = compound concentration 100 µM, 100 µM

## COc1cc(-c2[o+]c3cc(O)cc(OC4OC(CO)C(O)C(O)C4O)c3cc2OC2OC(CO)C(O)C(O)C2O)cc(OC)c1O (stereo not drawn) [Mv 3,5-diglc, malvidin 3,5-O-diglucoside]
[1]
  IC50: 66.5 ± 1.93 µM
  Selectivity Index COX-2/COX-1: 0.83
[2]; [5]
  inhibition at 100 µM: 11.9 ± 4.5%
[3]
  fM (population of the species): 39.19%
[3]; listed as Mv 3,5-diglc^–
  fM (population of the species): 60.70%
[4]; [6]
  inhibition at 100 µM: 13.4 ± 2.4%
COX-1 (ovine)
  IC50: 90.4 ± 1.92 µM

## COc1cc(-c2[o+]c3cc(O)cc(O)c3cc2OC2OC(CO)C(O)C(O)C2O)cc(OC)c1O (stereo not drawn) [Mv 3-glc, malvidin 3-O-glucoside]
[1]
  IC50: 39.9 ± 3.02 µM
  Selectivity Index COX-2/COX-1: 0.53
[2]; [7]
  Inhibition of AChE (%): 26.3 ± 3.1 ^a %
[2]; read-out: Inhibition of AChE (%), compound concentration 100 µM
  inhibition at 100 µM: 26.3 ± 3.06%
[3]
  fM (population of the species): 3.49%
[3]; listed as Mv 3-glc^2−
  fM (population of the species): 18.33%
[3]; listed as Mv 3-glc^−
  fM (population of the species): 78.18%
[4]; [7]
  Inhibition of BChE (%): 22.1 ± 3.0 ^a %
[4]; read-out: Inhibition of BChE (%), compound concentration 100 µM
  inhibition at 100 µM: 22.1 ± 3%
COX-1 (ovine)
  IC50: 74.78 ± 0.06 µM

## COc1cc(-c2[o+]c3cc(O)cc(O)c3cc2O)cc(OC)c1O [Mv, malvidin]
[1]
  IC50: 2.76 ± 0.16 µM
  Selectivity Index COX-2/COX-1: 0.22
[2]; [5]
  inhibition at 100 µM: 19.5 ± 2.3%
[3]
  fM (population of the species): 39.56%
[3]; listed as Mv^2−
  fM (population of the species): 8.08%
[3]; listed as Mv^3−
  fM (population of the species): 0.13%
[3]; listed as Mv^−
  fM (population of the species): 52.15%
[4]; [6]
  inhibition at 100 µM: 10.2 ± 2.2%
COX-1 (ovine)
  IC50: 12.4 ± 0.7 µM

## CN(C)C(=O)Oc1cccc([N+](C)(C)C)c1 [Neostigmine, neostigmine bromide, reference compound]
[2]; neostigmine concentration 0.17 µM, positive control
  inhibition at 0.17 µM: 50 ± 1.2%
[2]; positive control
  IC50: 0.17 ± 0.01 µM
[4]; neostigmine concentration 20.28 µM, positive control
  inhibition at 20.28 µM: 50 ± 4.2%
[4]; positive control
  IC50: 20.3 ± 1.7 µM
